The text below walks through data of ChEMBL document CHEMBL1201862, “PubChem BioAssay data set” (2004).

Each structure is given as a SMILES string.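 Where inhibition never reached the appropriate level, the endpoint shown equals the highest concentration tested. Otherwise, values were interpolated linearly from a five-concentration, 48-hour dose response in 96-well plates. GI50: concentration for 50% inhibition of growth.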 The source made the active and inactive calls. Rule as the data show it: active = GI50 up to about 1.1 µM and inactive = higher.

Among the test systems are COLO 205; DU-145; EKVX; HCC 2998; HOP-62; KM12; MDA-MB-231; NCI-H23; NCI-H460; NCI-H522; OVCAR-4; RPMI-8226; SF-268; SK-MEL-2; SK-MEL-5; SN12C; SW-620; T47D; TK-10; UACC-62.
Test in all cases: NCI-60 cell line screen, 48 h

For the compound `COc1cc(-c2[o+]c3cc(O)cc(O)c3cc2O)cc(O)c1O`, the GI50 with COLO 205 is > 100 µM (inactive); in the assay on DU-145, > 100 µM (inactive); in the assay with EKVX, 92.9 µM (inactive); with HCC 2998, 35 µM (inactive); in the assay on HOP-62, > 100 µM (inactive); in the assay on KM12, > 100 µM (inactive). Also, the GI50 was > 100 µM (inactive) in the assay on MDA-MB-231; > 100 µM (inactive) in the assay on NCI-H23; > 100 µM (inactive) with NCI-H460; 66.5 µM (inactive) with NCI-H522; 60 µM (inactive) in the assay with OVCAR-4; > 100 µM (inactive) in the assay with RPMI-8226. The GI50 was > 100 µM (inactive) with SF-268; > 100 µM (inactive) in the assay on SK-MEL-2; > 100 µM (inactive) in the assay with SK-MEL-5; > 100 µM (inactive) in the assay with SN12C; 30.6 µM (inactive) in the assay with SW-620; > 100 µM (inactive) in the assay on T47D. Also, the GI50 in the assay on TK-10 and in the assay on UACC-62 was > 100 µM (inactive) in each case.
`c1ccc2c3c([nH]c2c1)C1CCCN1CC3` (configuration not stated): the GI50 in the assay with COLO 205, in the assay on DU-145, in the assay with EKVX, with HCC 2998, in the assay with HOP-62 and in the assay with KM12 was > 10 µM (inactive) each time. Besides, the GI50 with MDA-MB-231, in the assay with NCI-H23, in the assay on NCI-H460, in the assay on NCI-H522, with OVCAR-4 and in the assay on RPMI-8226 was > 10 µM (inactive) throughout. In addition, the GI50 in the assay on SF-268, with SK-MEL-2, in the assay on SK-MEL-5, in the assay on SN12C, in the assay on SW-620 and in the assay with T47D was > 10 µM (inactive) in each case. Besides, the GI50 in the assay on TK-10 is > 10 µM (inactive).
As to `C=CC(C)(O)/C=C/C=C(\C)C(CC1OC1(C)C)OC(=O)/C(C)=C\C` (configuration not stated), the GI50 in the assay with COLO 205, in the assay with DU-145, in the assay on EKVX, in the assay on HCC 2998, with HOP-62 and with KM12 was > 100 µM (inactive) in each case. In addition, the GI50 in the assay with MDA-MB-231, with NCI-H23, in the assay with NCI-H460, in the assay on NCI-H522, in the assay with OVCAR-4 and in the assay with RPMI-8226 was > 100 µM (inactive) throughout. The GI50 with SF-268, with SK-MEL-2, with SK-MEL-5, in the assay with SN12C, in the assay on SW-620 and with T47D was > 100 µM (inactive) throughout. Also, the GI50 in the assay with TK-10 and with UACC-62 was > 100 µM (inactive) throughout.
Turning to `COC(OC)(c1ccccc1)C(I)I`, the GI50 in the assay with COLO 205 is 8.69 µM (inactive); with DU-145 it was 24.5 µM (inactive); in the assay on EKVX, 12 µM (inactive); with HCC 2998 it was 23.1 µM (inactive); with HOP-62, 28.1 µM (inactive); in the assay on KM12, 16.3 µM (inactive). Besides, the GI50 was 18.9 µM (inactive) with MDA-MB-231; 19.2 µM (inactive) in the assay with NCI-H23; 16.7 µM (inactive) with NCI-H460; 2.5 µM (inactive) in the assay with NCI-H522; 14.2 µM (inactive) with OVCAR-4; 2.09 µM (inactive) in the assay on RPMI-8226. Moreover, the GI50 in the assay with SF-268 was 19.3 µM (inactive); in the assay on SK-MEL-2, 13.8 µM (inactive); in the assay on SK-MEL-5, 8.61 µM (inactive); in the assay with SN12C, 20.1 µM (inactive); in the assay with SW-620, 2.92 µM (inactive); in the assay with T47D it was 19.2 µM (inactive). For the same compound, the GI50 in the assay with TK-10 is 13.3 µM (inactive); in the assay on UACC-62, 13.4 µM (inactive).
For the compound `CCN(CC)CCCn1c(=O)c2cccnc2n2c3c(=O)n(C)c(=O)n(C)c3nc12`, the GI50 in the assay on COLO 205, with DU-145, in the assay with EKVX, in the assay on HCC 2998, in the assay with HOP-62 and in the assay on KM12 was > 100 µM (inactive) throughout. Also, the GI50 in the assay on MDA-MB-231 was > 100 µM (inactive); in the assay on NCI-H23, > 100 µM (inactive); with NCI-H460, 84.7 µM (inactive); in the assay on NCI-H522, > 100 µM (inactive); in the assay with OVCAR-4, > 100 µM (inactive); in the assay on RPMI-8226 it was > 100 µM (inactive). Also, the GI50 with SF-268, in the assay on SK-MEL-2, with SK-MEL-5, in the assay on SN12C, in the assay with SW-620 and in the assay on T47D was > 100 µM (inactive) each time. In addition, the GI50 in the assay with TK-10 and in the assay with UACC-62 was > 100 µM (inactive) in each case.
For `CCOC(=O)CCC(NC(=O)c1ccc(Oc2nc3ccccc3nc2-c2ccccc2)cc1)C(=O)OCC` (configuration not stated), the GI50 with COLO 205 is > 100 µM (inactive); in the assay with DU-145, 41 µM (inactive); in the assay on EKVX, 57.9 µM (inactive); in the assay with HCC 2998 it was > 100 µM (inactive); in the assay on HOP-62, 11.2 µM (inactive); in the assay with KM12 it was 33.3 µM (inactive). For the same compound, the GI50 is 10.6 µM (inactive) in the assay with MDA-MB-231; 17.4 µM (inactive) with NCI-H23; > 80.4 µM (inactive) in the assay on NCI-H460; 11.3 µM (inactive) in the assay on NCI-H522; 6.55 µM (inactive) in the assay with OVCAR-4; 37.6 µM (inactive) with RPMI-8226. Besides, the GI50 in the assay on SF-268 is 6.79 µM (inactive); with SK-MEL-2 it was 31.5 µM (inactive); in the assay with SK-MEL-5 it was > 100 µM (inactive); in the assay on SN12C, 30.3 µM (inactive); in the assay on SW-620 it was > 100 µM (inactive); in the assay on T47D, > 29.8 µM (inactive). Also, the figures for the GI50 in the assay on TK-10 and in the assay with UACC-62 were 17.5 µM (inactive) and 32.7 µM (inactive), respectively.
With `CCCCC(=O)OC[n+]1cccc(-c2c(COC(=O)NC(C)C)c(COC(=O)NC(C)C)c3n2CCC3)c1`, the GI50 in the assay on COLO 205 was 72.8 µM (inactive); in the assay on DU-145, 25.8 µM (inactive); with EKVX, > 100 µM (inactive); in the assay on HCC 2998, > 100 µM (inactive); with HOP-62, 56.1 µM (inactive); with KM12 it was > 100 µM (inactive). The GI50 was 62.5 µM (inactive) with MDA-MB-231; 26.2 µM (inactive) in the assay with NCI-H23; 15 µM (inactive) in the assay with NCI-H460; 23 µM (inactive) in the assay with NCI-H522; 31.3 µM (inactive) in the assay on OVCAR-4; 30 µM (inactive) in the assay on RPMI-8226. In addition, the GI50 with SF-268 is 24.8 µM (inactive); in the assay on SK-MEL-2, 26.4 µM (inactive); with SK-MEL-5, 35.6 µM (inactive); in the assay with SN12C, 31.8 µM (inactive); in the assay on SW-620, 38.5 µM (inactive); in the assay on T47D it was > 83.2 µM (inactive). Moreover, the GI50 with TK-10 is 42.1 µM (inactive); with UACC-62, 20 µM (inactive).
Consider `COc1ccc2cc(NC(=O)Nn3cnnc3)ccc2c1`, for which the GI50 is > 100 µM (inactive) in the assay on COLO 205; > 100 µM (inactive) in the assay on DU-145; 80.7 µM (inactive) in the assay on EKVX; > 100 µM (inactive) in the assay on HCC 2998; > 100 µM (inactive) in the assay with HOP-62; 92.5 µM (inactive) in the assay on KM12. In addition, the GI50 in the assay on MDA-MB-231, in the assay on NCI-H23, in the assay with NCI-H460, with NCI-H522, with OVCAR-4 and in the assay on RPMI-8226 was > 100 µM (inactive) throughout. In addition, the GI50 in the assay on SF-268, with SK-MEL-2, with SK-MEL-5, in the assay with SW-620, in the assay on T47D and with TK-10 was > 100 µM (inactive) in each case. In the assay with UACC-62, the GI50 is > 100 µM (inactive).
For `O=C(NC(O)(C(F)(F)F)C(F)(F)F)c1ccccc1`, the GI50 in the assay with COLO 205, with DU-145, with EKVX, with HCC 2998, in the assay with HOP-62 and with KM12 was > 100 µM (inactive) in each case. Further, the GI50 in the assay on MDA-MB-231, in the assay on NCI-H23, in the assay on NCI-H460, in the assay on NCI-H522, with OVCAR-4 and in the assay with RPMI-8226 was > 100 µM (inactive) in each case. Also, the GI50 with SF-268, in the assay with SK-MEL-2, with SK-MEL-5, with SN12C, in the assay with SW-620 and with T47D was > 100 µM (inactive) in each case. The GI50 in the assay with TK-10 was > 100 µM (inactive).
On to `Nc1ccc(S(=O)(=O)Nc2ccc(Nc3c4ccccc4nc4ccccc34)cc2)cc1`, for which the GI50 with COLO 205 was 0.483 µM (active); in the assay with DU-145 it was < 0.01 µM (active); in the assay with EKVX it was 1.82 µM (inactive); in the assay on HCC 2998, 0.164 µM (active); in the assay with HOP-62, < 0.0119 µM (active); in the assay with KM12 it was 0.169 µM (active). The GI50 in the assay with MDA-MB-231 was 2.08 µM (inactive); in the assay with NCI-H23 it was 0.0185 µM (active); in the assay with NCI-H460, 0.0347 µM (active); in the assay on NCI-H522, 0.0695 µM (active); in the assay on OVCAR-4 it was 3.66 µM (inactive); in the assay with RPMI-8226, 0.0164 µM (active). Further, the GI50 in the assay on SF-268 is 0.0168 µM (active); in the assay with SK-MEL-2, 0.769 µM (active); in the assay with SK-MEL-5, 0.0199 µM (active); in the assay on SN12C, < 0.01 µM (active); with SW-620 it was 0.0485 µM (active); in the assay on T47D, 0.0637 µM (active). For the same compound, the GI50 with TK-10 is 0.566 µM (active); with UACC-62 it was 0.0213 µM (active).
